Columns and labels:
Test in all cases: cells
[1] = system: SK-N-FI; type: functional, cell-based, Homo sapiens; conditions: Homo sapiens, SK-N-FI;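 further: cell viability assay measuring growth inhibition of human SK-N-FI cells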
Description: SANGER: Inhibition of human SK-N-FI cell growth in a cell viability assay.

[2] = system: KALS-1; type: functional, cell-based, Homo sapiens; conditions: Homo sapiens, KALS-1;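 further: growth inhibition of KALS-1 cells, determined with a cell viability assay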
[3] = system: SK-NEP-1; type: functional, cell-based; conditions: Homo sapiens;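 further: growth inhibition of human SK-NEP-1 cells, read out by a cell viability assay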
Description: SANGER: Inhibition of human SK-NEP-1 cell growth in a cell viability assay.

[4] = system: DMS-114; type: functional, cell-based, Homo sapiens; conditions: Homo sapiens, DMS-114
[5] = system: NCI-H1395; type: functional, cell-based, Homo sapiens; conditions: Homo sapiens, NCI-H1395;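 further: cell viability assay read-out quantifying reduced proliferation of human NCI-H1395 cells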
Description: SANGER: Inhibition of human NCI-H1395 cell growth in a cell viability assay.

[6] = system: NCI-H2126; type: functional, cell-based, Homo sapiens; conditions: Homo sapiens, NCI-H2126;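 further: growth inhibition of the cancer cell line, determined with a cell viability readout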
Description: SANGER: Inhibition of human NCI-H2126 cell growth in a cell viability assay.

[7] = system: LB2241-RCC; type: functional, cell-based, Homo sapiens; conditions: Homo sapiens, LB2241-RCC;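 further: cell viability assay measuring how strongly the cultured human renal carcinoma line is prevented from growing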
Description: SANGER: Inhibition of human LB2241-RCC cell growth in a cell viability assay.

[8] = system: CTV-1; type: functional, cell-based; conditions: Homo sapiens;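 further: growth inhibition of the cell line, read out with a cell viability assay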
Description: SANGER: Inhibition of human CTV-1 cell growth in a cell viability assay.

[9] = system: CTB-1; type: functional, cell-based; conditions: Homo sapiens
Description: SANGER: Inhibition of human CTB-1 cell growth in a cell viability assay.

[10] = system: NB69; type: functional, cell-based, Homo sapiens; conditions: Homo sapiens, NB69;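 further: growth inhibition of NB69 cells, determined by a cell viability assay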
Description: SANGER: Inhibition of human NB69 cell growth in a cell viability assay.

[11] = system: ALL-PO; type: functional, cell-based; conditions: Homo sapiens;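 further: growth inhibition of ALL-PO cells, read out by a cell viability assay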
Description: SANGER: Inhibition of human ALL-PO cell growth in a cell viability assay.

[12] = system: SW684; type: functional, cell-based, Homo sapiens; conditions: Homo sapiens, SW684;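 further: growth inhibition of human SW684 cells, measured by a cell viability assay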
Description: SANGER: Inhibition of human SW684 cell growth in a cell viability assay.

[13] = system: LAMA-84; type: functional, cell-based; conditions: Homo sapiens;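 further: growth inhibition of LAMA-84 cells, read out with a cell viability assay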
Description: SANGER: Inhibition of human LAMA-84 cell growth in a cell viability assay.

[14] = system: Becker; type: functional, cell-based, Homo sapiens; conditions: Homo sapiens, Becker;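 further: growth inhibition of Becker cells, read out with a cell viability assay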
Description: SANGER: Inhibition of human Becker cell growth in a cell viability assay.

[15] = system: A101D; type: functional, cell-based, Homo sapiens; conditions: Homo sapiens, A101D;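 further: growth inhibition of the cell line, measured with a viability assay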
Description: SANGER: Inhibition of human A101D cell growth in a cell viability assay.

[16] = system: D-263MG; type: functional, cell-based, Homo sapiens; conditions: Homo sapiens, D-263MG
Description: SANGER: Inhibition of human D-263MG cell growth in a cell viability assay.

[17] = system: LB373-MEL-D; type: functional, cell-based, Homo sapiens; conditions: Homo sapiens, LB373-MEL-D;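 further: growth inhibition of the cell line, read out in a cell viability assay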
Description: SANGER: Inhibition of human LB373-MEL-D cell growth in a cell viability assay.

[18] = system: NCI-H1838; type: functional, cell-based, Homo sapiens; conditions: Homo sapiens, NCI-H1838;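 further: growth inhibition of NCI-H1838 cells, determined with a cell viability readout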
Description: SANGER: Inhibition of human NCI-H1838 cell growth in a cell viability assay.

[19] = system: OS-RC-2; type: functional, cell-based, Homo sapiens; conditions: Homo sapiens, OS-RC-2;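 further: growth inhibition of human OS-RC-2 cells, measured by a cell viability assay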
Description: SANGER: Inhibition of human OS-RC-2 cell growth in a cell viability assay.

[20] = system: SW 962; type: functional, cell-based, Homo sapiens; conditions: Homo sapiens, SW 962;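 further: growth inhibition of human SW962 cells, read out by a cell viability assay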
Description: SANGER: Inhibition of human SW962 cell growth in a cell viability assay.

[21] = system: NB13; type: functional, cell-based, Homo sapiens; conditions: Homo sapiens, NB13;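 further: cell viability readout measuring growth inhibition of human NB13 cells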
Description: SANGER: Inhibition of human NB13 cell growth in a cell viability assay.

[22] = system: HT; type: functional, cell-based; conditions: Homo sapiens
Description: SANGER: Inhibition of human HT cell growth in a cell viability assay.

[23] = system: NB12; type: functional, cell-based, Homo sapiens; conditions: Homo sapiens, NB12;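 further: growth inhibition of human NB12 cells, read out by a cell viability assay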
Description: SANGER: Inhibition of human NB12 cell growth in a cell viability assay.

[24] = system: Lu-65; type: functional, cell-based; conditions: Homo sapiens;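 further: growth inhibition of Lu-65 cancer cells, read out by a cell viability assay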
Description: SANGER: Inhibition of human LU-65 cell growth in a cell viability assay.

[25] = system: NEC8; type: functional, cell-based, Homo sapiens; conditions: Homo sapiens, NEC8;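 further: growth inhibition of human NEC8 cells, read out by a cell viability assay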
Description: SANGER: Inhibition of human NEC8 cell growth in a cell viability assay.

[26] = system: ETK-1; type: functional, cell-based, Homo sapiens; conditions: Homo sapiens, ETK-1;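 further: growth inhibition of human ETK-1 cells, read out with a cell viability assay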
Description: SANGER: Inhibition of human ETK-1 cell growth in a cell viability assay.

[27] = system: IA-LM; type: functional, cell-based, Homo sapiens; conditions: Homo sapiens, IA-LM;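 further: cell viability assay measuring growth inhibition of human IA-LM cells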
Description: SANGER: Inhibition of human IA-LM cell growth in a cell viability assay.

| SMILES | IC50 [1] [µM] | IC50 [2] [µM] | IC50 [3] [µM] | IC50 [4] [µM] | IC50 [5] [µM] | IC50 [6] [µM] | IC50 [7] [µM] | IC50 [8] [µM] | IC50 [9] [µM] | IC50 [10] [µM] | IC50 [11] [µM] | IC50 [12] [µM] | IC50 [13] [µM] | IC50 [14] [µM] | IC50 [15] [µM] | IC50 [16] [µM] | IC50 [17] [µM] | IC50 [18] [µM] | IC50 [19] [µM] | IC50 [20] [µM] | further results |
| --- | --- | --- | --- | --- | --- | --- | --- | --- | --- | --- | --- | --- | --- | --- | --- | --- | --- | --- | --- | --- | --- |
| C=C1C(=O)O[C@@H]2C3O[C@]3(C)CC/C=C(\C)CC[C@@H]12 (some centres not stated) | > 5 | > 5 | > 5 | > 5 | > 5 | > 5 | > 5 | > 5 | 3.85 | > 5 | > 5 | > 5 | > 5 | > 5 | > 5 | > 5 | > 5 | > 5 | > 5 | > 5 | IC50 [21]: > 5 µM; IC50 [22]: > 5 µM; IC50 [23]: > 5 µM; IC50 [24]: > 5 µM; IC50 [25]: > 5 µM; IC50 [26]: > 5 µM |
| CC1=C2C[C@H]3[C@@H](CC=C4C[C@@H](O)CC[C@@]43C)[C@@H]2CC[C@]12O[C@@H]1C[C@H](C)CN[C@H]1[C@H]2C [CYCLOPAMINE] | > 16 | > 16 | > 16 | > 16 | > 16 | > 16 | > 16 | > 16 | > 16 | > 16 | 11.8 | > 16 | > 16 | > 16 | > 16 | > 16 | > 16 | > 16 | 5.87 | > 16 | IC50 [21]: > 16 µM; IC50 [22]: > 16 µM; IC50 [23]: > 16 µM; IC50 [24]: > 16 µM; IC50 [25]: > 16 µM; IC50 [26]: > 16 µM |
| CS(=O)(=O)CCNCc1ccc(-c2ccc3ncnc(Nc4ccc(OCc5cccc(F)c5)c(Cl)c4)c3c2)o1 [LAPATINIB] | > 2 | > 2 | > 2 | > 2 | > 2 | > 2 | 1.15 | > 2 | > 2 | > 2 | > 2 | > 2 | > 2 | > 2 | > 2 | > 2 | > 2 | > 2 | 1.99 | > 2 | IC50 [21]: > 2 µM; IC50 [22]: > 2 µM; IC50 [23]: > 2 µM; IC50 [24]: > 2 µM; IC50 [25]: > 2 µM; IC50 [26]: > 2 µM |
| CCc1nc(N)nc(N)c1-c1ccc(Cl)cc1 [PYRIMETHAMINE] | > 20 | 12 | 1.24 | > 20 | > 20 | > 20 | > 20 | 2.48 | > 20 | > 20 | 1.19 | > 20 | 2.66 | > 20 | > 20 | > 20 | > 20 | > 20 | 2.61 | > 20 | IC50 [21]: > 20 µM; IC50 [22]: > 20 µM; IC50 [23]: > 20 µM; IC50 [24]: 11 µM; IC50 [25]: 1.5 µM; IC50 [26]: 4.1 µM |
| O=C(/C=C/c1ccccc1)NC(NC(=S)Nc1cccc2cccnc12)C(Cl)(Cl)Cl (configuration not stated) [SALUBRINAL] | > 16 | > 16 | > 16 | > 16 | > 16 | > 16 | 4.99 | > 16 | > 16 | > 16 | 4.09 | > 16 | 15.7 | 5.79 | 13.8 | > 16 | > 16 | > 16 | > 16 | > 16 | IC50 [21]: > 16 µM; IC50 [22]: 8.94 µM; IC50 [23]: > 16 µM; IC50 [24]: > 16 µM; IC50 [25]: 6.05 µM; IC50 [26]: > 16 µM |
| CN1CCN(CCOc2cc(OC3CCOCC3)c3c(Nc4c(Cl)ccc5c4OCO5)ncnc3c2)CC1 [SARACATINIB] | > 2 | 1.99 | > 2 | > 2 | > 2 | > 2 | > 2 | 0.0614 | > 2 | 1.37 | > 2 | > 2 | 0.16 | > 2 | > 2 | > 2 | > 2 | > 2 | 1.89 | > 2 | IC50 [27]: > 2 µM; IC50 [21]: > 2 µM; IC50 [22]: > 2 µM; IC50 [24]: > 2 µM; IC50 [25]: > 2 µM; IC50 [26]: > 2 µM |
| CNC(=O)c1cc(Oc2ccc(NC(=O)Nc3ccc(Cl)c(C(F)(F)F)c3)cc2)ccn1 [SORAFENIB] | > 4 | > 4 | > 4 | > 4 | > 4 | > 4 | > 4 | > 4 | > 4 | > 4 | 0.0318 | > 4 | 1.38 | > 4 | > 4 | > 4 | > 4 | > 4 | > 4 | > 4 | IC50 [21]: > 4 µM; IC50 [22]: > 4 µM; IC50 [23]: > 4 µM; IC50 [24]: > 4 µM; IC50 [25]: > 4 µM; IC50 [26]: > 4 µM |

— ChEMBL document CHEMBL1201861, “Genomics of Drug Sensitity in Cancer screening data, Wellcome Trust Sanger Institute”
